The text below walks through data of ChEMBL document CHEMBL1153590 (Bioorg Med Chem Lett, 2009).

The source made the active and inactive calls. The rule behind the calls is not given here.

A short description of assay [1]: Ratio of paclitaxel Kd to compound Kd for displacement of fluorescent N-AB-PT from tubulin.
Assay [2] is described as follows: Effect on tubulin polymerization at 50 uM by cold-induced disassembly assay.
Assay [3] has as its system PC-3. The experiment in a line: Ratio of compound IC50 to paclitaxel IC50 for cytotoxic activity against human PC3 cells. It is filed as functional.
Assay [4] deals with PC-3. The experiment in a line: Cytotoxicity against human PC3 cells after 4 days by sulforhodamine B assay. It is filed as functional, cell-based. The settings on record: PC-3, 96 h. A general note: In SRB staining, fixed cells bind dye roughly in proportion to their protein.
The test system of assay [5] is A2780. Briefly: Ratio of compound IC50 to paclitaxel IC50 for cytotoxic activity against human A2780 cells. It counts as functional.
Assay [6] relates to A2780. Briefly: Cytotoxicity against human A2780 cells after 4 days by sulforhodamine B assay. Conditions: A2780, 96 h. It is filed as functional, cell-based.
A short description of assay [7]: Ratio of compound ED50 to paclitaxel ED50 for inhibition of tubulin assembly.
A short description of assay [8]: Inhibition of tubulin assembly.
The nature of assay [9]: Displacement of fluorescent N-AB-PT from tubulin by spectrofluorimetry.
The test system of the next assay is P388. The experiment in a line: Ratio of docetaxel to compound in cytotoxic activity against mouse P388 cells. It counts as functional.

In general, IC50 refers to the concentration that inhibits the measured activity by half. Read a high IC50 as a need for much substance. Turning to `CC(=O)O[C@H]1C(=O)[C@@]2(C)[C@H]([C@H](OC(=O)c3ccccc3)[C@]3(O)C[C@H](OC(=O)[C@H](O)[C@H]4NC(=O)Oc5ccccc54)C(C)=C1C3(C)C)[C@]1(OC(C)=O)CO[C@@H]1C[C@@H]2O`, in assay [1], the Ratio came to 150. The outcome in assay [2] was inactive. Further, the “Ratio IC50” value in the assay on PC-3 [3] and in the assay with A2780 [5] was 1900 in each case. In addition, the figures for the IC50 with PC-3 [4] and in the assay on A2780 [6] were more than 5000 nM and more than 20000 nM, respectively. Also, the Ratio ED50 in assay [7] turned out to be 50. For the same compound, the ED50 in assay [8] is more than 25 µM.

`COC(=O)N[C@@H](c1ccccc1)[C@@H](O)C(=O)O[C@H]1C[C@@]2(O)[C@@H](OC(=O)c3ccccc3)[C@@H]3[C@]4(OC(C)=O)CO[C@@H]4C[C@H](O)[C@@]3(C)C(=O)[C@H](OC(C)=O)C(=C1C)C2(C)C` yielded a Ka in assay [9] of 1.11e+07 M⁻¹. The IC50 in the assay on PC-3 [4] was determined as 2 nM; in the assay with A2780 [6] it was 9 nM. Moreover, in the assay with P388, the Ratio is recorded as 150. In addition, in assay [8], the ED50 worked out at 0.43 µM.

As for `CC(=O)O[C@H]1C(=O)[C@@]2(C)[C@H]([C@H](OC(=O)c3ccccc3)[C@]3(O)C[C@H](OC(=O)[C@H](O)[C@@H](NC(=O)c4ccccc4)c4ccccc4)C(C)=C1C3(C)C)[C@]1(OC(C)=O)CO[C@@H]1C[C@@H]2O` [PACLITAXEL], the Ka in [9] is 4.76e+07 M⁻¹. The IC50 in the assay with PC-3 [4] came to 1.4 nM. In assay [8], the ED50 came to 0.48 µM.

For `CC(=O)O[C@H]1C(=O)[C@@]2(C)[C@H]([C@H](OC(=O)c3ccccc3)[C@@]3(O)C[C@@H](OC(=O)[C@@H](O)[C@@H](NC(=O)c4ccccc4)c4ccccc4C)C(C)=C1C3(C)C)[C@@]1(OC(C)=O)CO[C@@H]1C[C@@H]2O` (stereo in doubt), in assay [7], the Ratio ED50 stood at 5.1.
